In patent publication US6479506B1 (dated 2002):

Structure (SMILES)	melting point [°C]
Cn1ncnc1COc1nc2c(cc1-c1ccoc1)nnn2-c1ccccc1F	145 to 146
COc1cccc(F)c1-n1nnc2cc(C(C)(C)C)c(OCc3ncnn3C)nc21	116 to 118
Cn1ncnc1COc1nc2c(cc1-c1ccco1)nnn2-c1ccccc1F	170 to 173
Cn1ncnc1COc1nc2c(nnn2-c2ccccc2)c2ccccc12	188 to 190
Cn1ncnc1COc1nc2c(cc1-c1ccc(F)cc1)nnn2-c1ccccc1F	142 to 145
Cn1ncnc1COc1nc2c(cc1-c1ccsc1)nnn2-c1ccccc1F	133 to 135
Cn1ncnc1COc1nc2c(cc1C(C)(C)C)nnn2-c1ccccc1F	115 to 117
Cn1ncnc1COc1nc2c(cc1-c1ccoc1)nnn2-c1c(F)cccc1F	166 to 169
Cn1cnc(COc2nc3c(cc2C(C)(C)C)nnn3-c2ccccc2F)n1	127 to 129
Cn1ncnc1COc1nc2c(cc1-c1ccccc1)nnn2-c1ccccc1F	144 to 146
Cn1ncnc1COc1nc2c(cc1C1CCC1)nnn2-c1c(F)cccc1F (hydrate or solvate)	140 to 144
Cn1ncnc1COc1nc2c(cc1C(C)(C)C)nnn2-c1ccccc1	165 to 167
Cn1ncnc1COc1nc2c(cc1C1CCC1)nnn2-c1ccccc1F	120 to 122
CCn1ncnc1COc1nc2c(cc1C(C)(C)C)nnn2-c1cc(F)ccc1F	148 to 150
COC(=O)c1cc2nnn(-c3ccccc3)c2nc1OCc1ncnn1C	188 to 190
Cn1ncnc1COc1nc2c(cc1-c1cccc(F)c1)nnn2-c1c(F)cccc1F	137 to 140
Cn1cnc(COc2nc3c(nnn3-c3ccccc3)c3ccccc23)n1	189 to 190
Cn1cnc(COc2nc3c(cc2-c2ccsc2)nnn3-c2ccccc2F)n1	174 to 176
Cn1ncnc1COc1nc2c(cc1C(C)(C)C)nnn2-c1c(F)cccc1F	105 to 108
CCCn1ncnc1COc1nc2c(nnn2-c2ccccc2)c2ccccc12	154 to 156
CCn1ncnc1COc1nc2c(nnn2-c2ccccc2)c2ccccc12	192 to 195
Cn1cnc(COc2nc3c(cc2C(C)(C)C)nnn3-c2ccccc2)n1	179 to 180
CCCn1ncnc1COc1nc2c(cc1C(C)(C)C)nnn2-c1ccccc1F	127 to 129
Cn1cnc(COc2nc3c(cc2-c2cccs2)nnn3-c2ccccc2F)n1	179 to 181
c1ccc(-n2nnc3c4ccccc4c(OCc4ccccn4)nc32)cc1	147 to 150
Cn1ncnc1COc1nc2c(cc1CC(C)(C)C)nnn2-c1ccccc1F	130 to 133
